Columns and labels:
Format in all cases: cell-based, human
fibronectin and α-SMA [1] = assay: Western blotting of fibrosis-related proteins in TGF-β1-induced MRC-5 cells; details: MRC-5, TGF-β1 1 ng/ml, 10 μM, FIG. 4b
Protocol: Since the overexpression of extracellular matrix components such as fibronectin and α-SMA serves as an indicator of fibrotic changes in tissues, MRC-5 cells induced to undergo fibrosis by TGF-β1 were treated with each compound at different concentrations to compare the expression levels of fibronectin and α-SMA.
(§1) Specifically, to extract fibronectin and α-SMA proteins, the cells were washed once with cold PBS and then RIPA buffer (150 mM NaCl, 0.5% Triton X-100, 50 mM Tris-HCl, pH 7.4, 25 mM NaF, 20 mM EGTA), which was added with a protease inhibitor cocktail, was added thereto to lyse the cells. Then, the proteins were quantified using a BCA protein assay kit. All protein samples were subjected to electrophoresis at 10 μg on 8% to 10% PAGE gels and then transferred to 0.2 μm PVDF membranes (EMD Millipore, MA, USA). The membranes to which the protein was transferred were blocked with 5% BSA or 5% skim milk for 1 hour, and then primary antibodies were added thereto and incubated overnight at 4° C. The following day, the membranes were washed three times with PBST, and then HRP-conjugated secondary antibodies were added and reacted at room temperature for 1 hour. The PVDF membranes prepared through such procedures were smeared with ECL (Luminata™ Crescendo, EMD Millipore) and exposed to a fluorescence reader to confirm the level of protein expression.
The specific experimental methods are the same as in Example 2, and sulforaphane was treated at a concentration of 20 μM, Compound 1 at 5 μM, 10 μM, and 20 μM, and Compound 2 at 2.5 μM, 5 μM, and 10 μM, respectively.
(§2) To compare the changes in fibrosis-related protein expression by treating normal MRC-5 and diseased DHLF-IPF cell lines induced with pulmonary fibrosis by TGF-β1 with SFN and the two candidate compounds, Western blotting was performed.
(§3) The specific experimental methods are the same as in Example 2. TGF-β1 was treated at 1 ng/ml to induce fibrosis, and sulforaphane and the two compounds each were treated at a concentration of 10 μM.

fibronectin and α-SMA [2] = assay: Western blotting of fibrosis-related proteins in TGF-β1-induced DHLF-IPF cells; details: TGF-β1 1 ng/ml, 10 μM, FIG. 4b
Protocol: as §1, §2, §3

FN, COL1A1, and α-SMA [3] = assay: qRT-PCR of fibrosis-related genes in TGF-β1-induced MRC-5 cells; details: MRC-5, 10 μM pretreatment 1 hour, TGF-β1 1 ng/ml 48 hours, FIG. 4c/4d
Protocol: (§4) MRC-5 and DHLF-IPF cells were each cultured in growth medium, and the medium was removed. […] The medium was then removed, and the cells were washed once with PBS. Intracellular total RNA was extracted from the cultured cells using TRIzol reagent (TaKaRa Bio Inc., Japan) for gene expression analysis. 1 mL of TRIzol reagent was added to lyse the cells and denature the tissue. The lysate was transferred to each 1.5 mL tube, and 200 μL of chloroform was added thereto, followed by vortexing for 20 seconds to ensure complete mixing. After incubating at room temperature for 15 minutes, the mixture was centrifuged at 14,000 rpm for 20 minutes to obtain the supernatant. After adding an equal volume of isopropyl alcohol, the tubes were inverted and incubated at room temperature for 10 minutes. The sample was centrifuged at 14,000 rpm for 15 minutes to obtain an RNA pellet, which was washed by centrifugation with 70% ethanol for use on RNA at 14,000 rpm for 5 minutes, and dried for 5 minutes. The dried RNA sample was added with 20 μL of distilled water treated with 0.1% diethyl pyrocarbonate (DEPC) to dissolve the pallet and the resultant was used as a sample for cDNA synthesis. 1 μL of the same was used to measure the RNA concentration and purity at O.D. 260/280 nm using a Nanodrop.
(§5) Single-stranded cDNA synthesis was performed by mixing 1 μg of the extracted total RNA with 1 μL of oligo-d(T) primer ([…]) and 10 mM dNTP (TaKaRa Bio Inc., Japan), reacting at 65° C. for 5 minutes, followed by rapid cooling. To this template, 4 μL of 5×RT buffer, 0.5 μL of RNA inhibitor, and 100 units of RTase (TaKaRa Bio Inc., Japan) were added, and the total volume was adjusted to 20 μL using DEPC-treated distilled water. […]
(§6) Each gene expression level was measured using real-time PCR. […] The specificity of the amplified product was confirmed through melting curve analysis, and the target genes were quantified and compared using GAPDH as a control gene.

FN, COL1A1, and α-SMA [4] = assay: qRT-PCR of fibrosis-related genes in TGF-β1-induced DHLF-IPF cells; details: 10 μM pretreatment 1 hour, TGF-β1 1 ng/ml 48 hours, FIG. 4c/4d
Protocol: as §4, §5, §6

C[S+]([O-])CCCCN=C=S (stereo not shown) [sulforaphane, reference compound]
reduced: expression levels of fibronectin and α-SMA protein (fibronectin and α-SMA [1]) | expression levels of fibronectin and α-SMA protein (fibronectin and α-SMA [2]) | gene expression levels of FN, COL1A1, and α-SMA (FN, COL1A1, and α-SMA [3]) | gene expression levels of FN, COL1A1, and α-SMA (FN, COL1A1, and α-SMA [4])
